Test results published in ChEMBL document CHEMBL2150908, “Discovery of 2-Alkyl-1-arylsulfonylprolinamides as 11β-Hydroxysteroid Dehydrogenase Type 1 Inhibitors” (ACS Med Chem Lett, 2012).

Tests used:
[1] = molecular target: 11-beta-hydroxysteroid dehydrogenase 1 (Mus musculus) (UniProt P50172); assay: Inhibition of mouse 11betaHSD1 at 100 nM by scintillation proximity assay
[2] = Intrinsic clearance in human liver microsomes assessed as per mg of protein; assay type: ADME, Microsome; settings: read-out: CLH
[3] = molecular target: T1, 11-beta-hydroxysteroid dehydrogenase 1 (Mus musculus, UniProt P50172); assay: Inhibition of mouse 11betaHSD1 by scintillation proximity assay
[4] = molecular target: T2, 11-beta-hydroxysteroid dehydrogenase 1 (Homo sapiens, UniProt P28845); assay: Inhibition of human 11betaHSD1 at 100 nM by scintillation proximity assay
Target sequence in this assay (P28845 whole entry, looked up): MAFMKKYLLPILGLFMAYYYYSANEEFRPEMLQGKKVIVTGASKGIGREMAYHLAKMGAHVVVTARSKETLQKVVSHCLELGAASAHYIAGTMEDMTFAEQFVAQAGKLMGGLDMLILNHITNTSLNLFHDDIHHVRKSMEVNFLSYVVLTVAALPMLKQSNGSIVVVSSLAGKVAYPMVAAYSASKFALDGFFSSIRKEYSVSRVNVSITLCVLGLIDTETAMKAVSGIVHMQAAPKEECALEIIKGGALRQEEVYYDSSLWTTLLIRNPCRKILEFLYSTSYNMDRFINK

[5] = Half life in BALB/c mouse at 1 mg/kg, iv; assay type: ADME, organism-based; parameters: dose 1 mg/kg, route intravenous; settings: in vivo
[6] = system: Mus musculus; assay: Inhibition of 11betaHSD1 in BALB/c mouse using prednisone as substrate assessed as reduction of prednisolone production at 3 mg/kg, ip administered 1 hr prior to substrate addition measured after 2 mins post substrate addition by LC/MS/MS analysis; assay type: functional; settings: route intraperitoneal
[7] = molecular target: T3, 11-beta-hydroxysteroid dehydrogenase type 2 (Homo sapiens, UniProt P80365); assay: Inhibition of human 11betaHSD2
T3 sequence (P80365 whole entry): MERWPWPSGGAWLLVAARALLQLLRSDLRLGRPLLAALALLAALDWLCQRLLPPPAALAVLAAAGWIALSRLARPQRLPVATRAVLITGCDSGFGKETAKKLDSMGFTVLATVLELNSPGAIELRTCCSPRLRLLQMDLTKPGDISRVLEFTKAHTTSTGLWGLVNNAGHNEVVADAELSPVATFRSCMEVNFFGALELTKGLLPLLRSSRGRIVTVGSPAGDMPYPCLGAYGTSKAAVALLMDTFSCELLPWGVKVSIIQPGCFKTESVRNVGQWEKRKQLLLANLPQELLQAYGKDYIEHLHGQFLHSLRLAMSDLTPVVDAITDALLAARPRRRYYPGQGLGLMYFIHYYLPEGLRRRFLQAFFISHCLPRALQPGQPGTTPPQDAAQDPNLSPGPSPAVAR

[8] = Volume of distribution at steady state in BALB/c mouse; assay type: ADME, organism-based; settings: in vivo, read-out: Vdss
[9] = Plasma concentration in BALB/c mouse at 10 mg/kg, ip administered 1 hr prior to prednisone addition measured after 2 mins post prednisone addition by LC/MS/MS analysis; assay type: ADME, organism-based; parameters: dose 10 mg/kg, route intraperitoneal
[10] = system: Mus musculus; assay: Inhibition of 11betaHSD1 in BALB/c mouse using prednisone as substrate assessed as remaining prednisolone level at 10 mg/kg, ip administered 1 hr prior to substrate addition measured after 2 mins post substrate addition by LC/MS/MS analysis; assay type: functional; settings: route intraperitoneal
[11] = system: Mus musculus; assay: Inhibition of 11betaHSD1 in BALB/c mouse using prednisone as substrate assessed as remaining prednisolone level at 30 mg/kg, ip administered 1 hr prior to substrate addition measured after 2 mins post substrate addition by LC/MS/MS analysis; assay type: functional; settings: route intraperitoneal
[12] = system: Mus musculus; assay: Inhibition of 11betaHSD1 in BALB/c mouse using prednisone as substrate assessed as reduction of prednisolone production at 30 mg/kg, ip administered 1 hr prior to substrate addition measured after 2 mins post substrate addition by LC/MS/MS analysis; assay type: functional; settings: route intraperitoneal
[13] = system: Mus musculus; assay: Inhibition of 11betaHSD1 in BALB/c mouse using prednisone as substrate assessed as reduction of prednisolone production at 10 mg/kg, ip administered 1 hr prior to substrate addition measured after 2 mins post substrate addition by LC/MS/MS analysis; assay type: functional; settings: route intraperitoneal
[14] = Plasma concentration in BALB/c mouse at 30 mg/kg, ip administered 1 hr prior to prednisone addition measured after 2 mins post prednisone addition by LC/MS/MS analysis; assay type: ADME, organism-based; parameters: dose 30 mg/kg, route intraperitoneal
[15] = molecular target: T2, 11-beta-hydroxysteroid dehydrogenase 1; assay: Inhibition of human 11betaHSD1 by scintillation proximity assay
Target sequence in this assay (P28845 whole entry): as the sequence (P28845 whole entry, looked up) above

[16] = species on record: Mus musculus; assay: Clearance in BALB/c mouse; assay type: ADME, organism-based; settings: in vivo
[17] = molecular target: T1, 11-beta-hydroxysteroid dehydrogenase 1; assay: Inhibition of mouse 11betaHSD1 in 3T3L1 cells assessed as conversion of [1,2-(N)3H]-cortisone to cortisol after 1 hr by liquid scintillation counter; assay type: cell-based, 3T3-L1
[18] = Bioavailability in BALB/c mouse at 5 mg/kg, ip; assay type: ADME, organism-based; settings: in vivo
[19] = Oral bioavailability in BALB/c mouse at 5 mg/kg; assay type: ADME, organism-based; settings: in vivo
[20] = system: Mus musculus; assay: Inhibition of 11betaHSD1 in ip dosed BALB/c mouse using prednisone as substrate assessed as reduction of prednisolone production administered 1 hr prior to substrate addition measured after 2 mins post substrate addition by LC/MS/MS analysis; assay type: functional, organism-based
[21] = AUC (0 to t) in BALB/c mouse at 5 mg/kg, ip; assay type: ADME, organism-based; parameters: dose 5 mg/kg, route intraperitoneal; settings: plasma
[22] = Plasma concentration in BALB/c mouse at 3 mg/kg, ip administered 1 hr prior to prednisone addition measured after 2 mins post prednisone addition by LC/MS/MS analysis; assay type: ADME, organism-based; parameters: dose 3 mg/kg, route intraperitoneal
[23] = system: Mus musculus; assay: Inhibition of 11betaHSD1 in BALB/c mouse using prednisone as substrate assessed as remaining prednisolone level at 3 mg/kg, ip administered 1 hr prior to substrate addition measured after 2 mins post substrate addition by LC/MS/MS analysis; assay type: functional; settings: route intraperitoneal

T1 sequence (P50172 whole entry): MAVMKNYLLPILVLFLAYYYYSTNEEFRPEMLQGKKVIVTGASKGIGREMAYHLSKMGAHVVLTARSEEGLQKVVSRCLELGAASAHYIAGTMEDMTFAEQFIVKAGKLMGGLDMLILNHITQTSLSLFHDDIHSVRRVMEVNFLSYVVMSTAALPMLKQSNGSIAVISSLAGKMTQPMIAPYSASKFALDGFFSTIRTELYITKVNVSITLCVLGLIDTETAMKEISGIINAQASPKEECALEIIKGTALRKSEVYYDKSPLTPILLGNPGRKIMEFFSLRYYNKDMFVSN
Sequence of 11-beta-hydroxysteroid dehydrogenase 1 (Mus musculus) (P50172 whole entry, looked up): as the sequence (P50172 whole entry) above

Row | SMILES | inhibition [1] [%] | microsomal CLint [2] [µL/min/mg] | IC50 [3] [nM] | other results
1 | COc1ccc(S(=O)(=O)N2CCC[C@]2(C)C(=O)N[C@H]2C3CC4CC2C[C@](O)(C4)C3)cc1OC | 3 | 132 | – | –
2 | Cc1c(Cl)cccc1S(=O)(=O)N1CCC[C@@H]1C(=O)NC1CCCCC1 | – | 430 | – | –
3 | Cc1c(Cl)cccc1S(=O)(=O)N1CCC[C@]1(C)C(=O)NC1C2CC3CC(C2)CC1C3 (stereo not given in full) | – | 499 | 64 | –
4 | COC(=O)[C@H]1CC2COCC(C1)[C@H]2NC(=O)[C@@]1(C)CCCN1S(=O)(=O)c1cccc(Cl)c1C | 33 | – | – | –
5 | Cc1c(Cl)cccc1S(=O)(=O)N1CCC[C@]1(C)C(=O)N[C@H]1CC[C@H](O)CC1 | 13 | – | – | –
6 | Cc1c(Cl)cccc1S(=O)(=O)N1CCC[C@]1(C)C(=O)NC1CCCCC1 | 9.2 | 140 | – | –
7 | CC(O)(c1ccc(S(=O)(=O)N2CCC[C@]2(C)C(=O)N[C@H]2C3CC4CC2C[C@](O)(C4)C3)cc1)C(F)(F)F (stereo not given in full) | 26 | 64 | – | –
8 | Cc1c(Cl)cccc1S(=O)(=O)N1CCC[C@]1(C)C(=O)NC12CC3CC(CC(O)(C3)C1)C2 | 18 | – | – | inhibition [4]: 35%
9 | COC(=O)[C@]12CC3CC(C1)[C@@H](NC(=O)[C@@]1(C)CCCN1S(=O)(=O)c1ccc(C(C)(O)C(F)(F)F)cc1)C(C3)C2 (stereo not given in full) | 14 | – | – | –
10 | CC(O)(c1ccc(S(=O)(=O)N2CCC[C@]2(C)C(=O)N[C@H]2C3CC4CC2C[C@](C#N)(C4)C3)cc1)C(F)(F)F (stereo not given in full) | 9.5 | – | – | –
11 | C[C@]1(C(=O)N[C@H]2C3CC4CC2C[C@](O)(C4)C3)CCCN1S(=O)(=O)c1cccs1 | – | 15 | 112 | –
12 | CC(=O)c1ccc(S(=O)(=O)N2CCC[C@]2(C)C(=O)N[C@H]2C3CC4CC2C[C@](O)(C4)C3)cc1 | 16 | 12 | – | –
13 | C[C@]1(C(=O)N[C@H]2C3CC4CC2C[C@](O)(C4)C3)CCCN1S(=O)(=O)c1ccc(Br)s1 | – | 57 | 97 | –
14 | CC(C)(C)c1ccc(S(=O)(=O)N2CCC[C@]2(C)C(=O)N[C@H]2C3CC4CC2C[C@](O)(C4)C3)cc1 | 12 | – | – | –
15 | CO[C@H]1CC[C@H](NC(=O)[C@@]2(C)CCCN2S(=O)(=O)c2cccc(Cl)c2C)CC1 | 15 | – | – | inhibition [4]: 37%

The next lines start with results.

Row | inhibition [1] [%] | microsomal CLint [2] [µL/min/mg] | IC50 [3] [nM] | SMILES | other results
16 | – | – | 164 | CC[C@]1(C(=O)N[C@H]2C3CC4CC2C[C@](O)(C4)C3)CCCN1S(=O)(=O)c1cccc2cccnc12 | –
17 | – | – | 87 | C=CC[C@]1(C(=O)N[C@H]2C3CC4CC2C[C@](O)(C4)C3)CCCN1S(=O)(=O)c1cccc2cccnc12 | inhibition [4]: 33%
18 | 17 | 55 | – | C[C@]1(C(=O)N[C@H]2C3CC4CC2C[C@](O)(C4)C3)CCCN1S(=O)(=O)c1cccnc1 | –
19 | – | 51 | 11 | C[C@]1(C(=O)N[C@H]2C3CC4CC2C[C@](O)(C4)C3)CCCN1S(=O)(=O)c1cccc2cccnc12 | half-life [5]: 14 min; inhibition in vivo at 3 mg/kg [6]: 34%; IC50 [7]: > 10000 nM; Vd [8]: 0.63 L/kg; concentration at 2 min [9]: 80 ng/mL; Activity [10]: 29%; Activity [11]: 11%; inhibition in vivo at 30 mg/kg [12]: 89%; inhibition in vivo at 10 mg/kg [13]: 71%; concentration at 62 min [14]: 94 ng/mL; IC50 [15]: 7.7 nM; clearance [16]: 60 mL/min/kg; IC50 [17]: 11 nM; bioavailability [18]: 33%; bioavailability [19]: 3%; inhibition [20]: Dose-dependent effect; AUC(0-t) [21]: 939 ng·h/mL; concentration at 2 min [22]: 28 ng/mL; Activity [23]: 66%
20 | 37 | 87 | – | C[C@]1(C(=O)N[C@H]2C3CC4CC2C[C@](O)(C4)C3)CCCN1S(=O)(=O)c1ccc(-c2ccccc2)cc1 | –
21 | – | 106 | 1.3 | Cc1c(Cl)cccc1S(=O)(=O)N1CCC[C@]1(C)C(=O)N[C@H]1C2CC3CC1C[C@](O)(C3)C2 | half-life [5]: 14 min; IC50 [7]: 2200 nM; Vd [8]: 0.51 L/kg; IC50 [15]: 0.1 nM; clearance [16]: 90 mL/min/kg; IC50 [17]: 121 nM; bioavailability [18]: 63%; bioavailability [19]: 9.1%; AUC(0-t) [21]: 597 ng·h/mL
22 | 31 | 148 | – | CN(C)c1cccc2c(S(=O)(=O)N3CCC[C@]3(C)C(=O)N[C@H]3C4CC5CC3C[C@](O)(C5)C4)cccc12 | –
23 | – | – | 125 | C[C@]1(C(=O)N[C@H]2C3CC4CC2C[C@](O)(C4)C3)CCCN1S(=O)(=O)c1ccccc1C#N | –
24 | – | – | 63 | Cc1c(Cl)cccc1S(=O)(=O)N1CCC[C@@]1(C)C(=O)N[C@H]1C2CC3CC1C[C@](O)(C3)C2 | IC50 [15]: 3.1 nM
25 | – | 134 | 146 | C[C@]1(C(=O)N[C@H]2C3CC4CC2C[C@](O)(C4)C3)CCCN1S(=O)(=O)c1ccc(C#N)cc1Cl | –
